US11021488B2, “Hetero-substituted cyclic lactone analogues and uses thereof” (BioVentures, LLC, priority 2015, dated 2021)

Experiments:
AML primary samples = experiment: Activity of SLs against AML primary samples
MV4-11 cells = experiment: Cytotoxic activity of SLs against MV4-11 cells (flow cytometry, YO-PRO-1 / 7-AAD); assay type: cell-based; settings: MV4-11 AML cell line, cell viability at 36 hours, triplicate
Description: Following this promising data, additional SLs were studied. This included glaucolide A (FIG. 5A), glaucolide E (FIG. 5B) and calaxin (FIG. 4A). Further, an additional compound Bahia I (FIG. 11) was synthesized (described below) and evaluated. The cytotoxicity of these compounds was determined using the AML cell line, MV4-11. MV4-11 cells were treated with the compounds at varying concentrations in triplicate. Cells were then stained with YO-PRO-1 and 7-aminoactinomycin D (7-AAD). YO-PRO-1 stains apoptotic cells and 7-ADD detects cell permeability. At 36 hours cell viability was measured via flow cytometry.

MOLM-13_BLIV cells = experiment: In vivo efficacy in NSG mice injected with MOLM-13_BLIV leukemia cells (luciferin imaging); settings: 2.5 mg/kg in 20% DMSO i.p. every other day, imaged Day 23 and Day 31, vs vehicle
Description: To evaluate the efficacy of bahia II (BAH) in vivo, 6-8 week old NSG mice were injected i.v. via tail vein with 2.5×10^5 MOLM-13_BLIV cells. Two weeks after injection mice were injected with 3 mg of luciferin to visualize the leukemia cells using the IVIS Spectrum Imager. This was denoted time 0. Mice were randomized into 2 groups: (1) Vehicle (DMSO 20%) and (2) bahia II (BAH) (2.5 mg/kg in 20% DMSO). Mice were treated with vehicle or BAH every other day. After 3 doses, administered by i.p. injection, mice were imaged to evaluate tumor progression (Day 23). One week after the first 3 doses, the mice were treated and evaluated again in the same manner (Day 31).

Solubility in water = assay type: physicochemical
[1] = test system: normal peripheral blood mononuclear cells (PBMNCs); experiment: Toxicity against normal peripheral blood mononuclear cells compared with leukemic cells; assay type: cell-based; settings: PBMNCs compared with leukemic cells (FIG. 14)
Excerpt: The cytotoxicity of Bahia II against leukemic cells was compared with its activity against normal peripheral blood mononuclear cells (PBMNCs) (FIG. 14).

| Molecule | Average LD50 (AML primary samples) [µM] | LD50 (MV4-11 cells) [µM] | further results |
| --- | --- | --- | --- |
| C=C1C(=O)OC2C1C(OC(=O)/C(=C/CO)CO)CC1(CO1)C1CC=C(C)C21 (centres unmarked) [Bahia II] | 4.64 | 1.21 | radiance emitted from tumor cells (MOLM-13_BLIV cells): significant reduction in radiance; solubility in water (Solubility in water; mass concentration): 1750 ± 60 µg/mL; solubility in water (Solubility in water; molar): 465 µM; toxicity against normal cells versus leukemia cells [1]: much lower toxicity against normal cells |
| C=C(C)C(=O)O[C@@H]1C[C@@]2(C)OC(=CC2=O)/C(C)=C\[C@H]2OC(=O)C(=C)[C@@H]21 [Calaxin] |  | 0.0544 |  |
| C=C1C(=O)O[C@@H]2[C@H]3C(C)=CC(=O)C3=C(C)CC[C@@H]12 [DHL, Dehydroleucodine, reference compound] | 7.06 | 3.19 |  |
| C=C1C(=O)O[C@@H]2/C=C(\C)CC/C=C(\C)C[C@@H](OC(=O)/C(=C/CO)CO)[C@@H]12 [Eupatoriopicrin] | 5.65 | 1.09 |  |
| Bahia I |  | 2.80 |  |
| Glaucolide A |  | 1.82 |  |
| Glaucolide E |  | 1.12 |  |
